One experiment concerns MRL/lpr mice. Put plainly: Anti-dsDNA antibody titer in blood of MRL/lpr mice (Example 6). Format: in vivo. The text has this: MRL/lpr mice (purchased from Charles River Laboratories Japan, Inc.) were used as disease model (may also be referred to as collagen disease model or systemic lupus erythematosus (SLE) model) mice developing inflammatory diseases at a high rate and developing multiple autoimmune phenomena. Approximately 80% or more of the MRL/lpr mice develop systemic vasculitis around four to five months old. In addition, it is also known that the same individual spontaneously develops, not only vasculitis, but also glomerulonephritis, arthritis, sialadenitis, and the like (J. Jpn. Coll. Angiol., 2009, 49 11-16.).
Experiments were performed as follows: • Group 1: administered a physiological saline solution only (saline); • Group 2: administered 0.04 mg/kg of Compound A; • Group 3: administered 0.2 mg/kg of Compound A; • Group 4: administered 1 mg/kg of Compound A. […]
The blood was collected over time (0 w, 4 w, 8 w, 12 w, and 16 w) measure the anti-dsDNA antibody titers in the blood. The anti-dsDNA antibody is a kind of antinuclear antibody and is known to be frequently and specifically detected in the serum of SLE patients.
The anti-dsDNA antibody titers in the blood were measured with “LBIS™ anti-dsDNA mice ELISA KIT” (AKRDO-061, produced by Fujifilm Corp.). […]

Experiment [1] deals with peripheral blood mononuclear cells (PBMC). Description: IgG production by B cell-stimulation culture using peripheral blood mononuclear cells (Example 5). Format: cell-based, human. How it is done: Peripheral blood mononuclear cells were isolated from normal healthy human peripheral blood by density gradient centrifugation using Ficoll. In the presence of 5 μg/mL anti-human IgM antibody, 1 μg/mL anti-human CD40 antibody, 30 ng/mL recombinant human IL-21, 30 ng/mL recombinant human BAFF, and Compound A (0.4 μM, 2 μM, and 10 μM), 2×10^5 peripheral blood mononuclear cells were cultured using a 10% FBS/RPMI 1640 culture medium in a 5% CO2 environment at 37° C. for seven days. The cells were cultured in 96-well round-bottom culture plates in a scale of 200 μL per well. Seven days later, the supernatant was removed and the culture supernatant was collected to determine the IgG content in the culture supernatant by ELISA. As controls, experiments in the case of not adding Compound A and the case of adding neither Compound A nor BAFF were also performed. Moreover, for comparison with the effects of Compound A, experiments using BIK-13 instead of Compound A were also performed.

The test system of experiment [2] is peripheral blood monocytes and B cells from Sjögren syndrome patients. Put plainly: IgG production in coculture of BAFF-stimulated peripheral blood monocytes and B cells (Example 4). Format: cell-based, human. How it is done:
Monocytes were isolated from Sjögren syndrome patient peripheral blood using CD14 microbeads, and B cells were isolated from the peripheral blood using CD19 microbeads. Using Transwell® culture plates, 2×10^5 monocytes per well were seeded in the upper plate and 1×10^5 B cells in the lower plate to be cultured in the presence of 2 μg/mL recombinant human BAFF (same as Example 2) and Compound A (1 μM and 10 μM) using a 10% FBS/RPMI 1640 culture medium in a 5% CO2 environment at 37° C. for four days (coculture of the peripheral blood monocytes and the B cells via a membrane). Four days later, the supernatant was removed and the culture supernatant was collected to determine the IgG content in the culture supernatant by ELISA. As controls, experiments in the case of not adding Compound A and the case of adding neither Compound A nor BAFF were also performed. Moreover, for comparison with the effects of Compound A, experiments using BIK-13 instead of Compound A were also performed.

A further experiment concerns NZB/WF1 mice. Description: Anti-dsDNA antibody titer in blood of NZB/WF1 mice (Example 7). Format: in vivo. How it is done: NZB/WF1 mice (purchased from Japan SLC, Inc.) were used as disease model (may also be referred to as systemic lupus erythematosus (SLE) model) mice producing anti-dsDNA antibodies with age and spontaneously developing glomerulonephritis. Except for the following exceptions, present Example was performed by the same materials and method as Example 6 above.
Experiments were performed as follows: • Group 1: administered a physiological saline solution only (saline); • Group 2: administered 0.2 mg/kg of Compound A; • Group 3: administered 1 mg/kg of Compound A.
NZB/WF1 mice (female) of 20 weeks old were classified into the above three groups (five individuals per group) and predetermined administration was initiated (0 w) on the individuals in each group.
The administration was performed five times a week for 20 weeks by intravenous injection.

With `Cc1c(C)n(Cc2ccccc2)c2ncnc(OC3CCN(CC(=O)NCC4CC4)CC3)c12` [Compound A, 2-[4-{(7-benzyl-5,6-dimethyl-7H-pyrrolo[2,3-d]pyrimidin-4-yl)oxy}piperidin-1-yl]-N(cyclopropylmethyl)acetamide], the “anti-dsDNA antibody titer inhibitory effect compared with saline” value in the experiment on MRL/lpr mice (0.2 mg/kg and 1 mg/kg, 16th week) was “significant (respectively, p<0.05) anti-dsDNA antibody titer inhibitory effects”; in the experiment with NZB/WF1 mice (1 mg/kg, 12th and 16th weeks) it was “significant (respectively, p<0.05) anti-dsDNA antibody titer inhibitory effects”. The “anti-dsDNA antibody titers in the blood compared with saline” value in the experiment with MRL/lpr mice (0.04, 0.2 and 1 mg/kg, intravenous injection five times a week, 8 w or later) is “tendency of decrease”; in the experiment with NZB/WF1 mice (0.2 and 1 mg/kg, intravenous injection five times a week, 12 w or later), “tendency of decrease”. In experiment [1] (0.4 μM, 2 μM and 10 μM, anti-IgM, anti-CD40, IL-21 and BAFF stimuli, 7 days), the “IgG antibody production inhibitory effect compared with the control” value was “significant (respectively, p<0.05, p<0.01, and p<0.001) IgG antibody production inhibitory effects”. In addition, the “cancellation of the IgG antibody production enhancement by BAFF” value is “almost completely cancelled” in experiment [1] (10 μM, compared with adding none); “completely cancelled and further the IgG antibody production was inhibited below the basal level” in experiment [2] (10 μM, compared with adding neither compound nor BAFF). In addition, the entries for the “inhibitory effect on IgG antibody production, times stronger than BIK-13” value in experiment [1] (PBMC system of Example 5) and in experiment [2] (coculture system of Example 4) were “approximately 25 times” and “approximately 10 times”, respectively. The “IgG antibody production inhibitory effect compared with the control (B+mono+BAFF)” value in experiment [2] (1 μM and 10 μM with 2 μg/mL human BAFF, 4 days) is on record as “significant (p<0.01 or p<0.001) IgG antibody production inhibitory effects”.

These data come from patent publication US12115161B2, “Prophylactic and/or therapeutic agent for inflammatory diseases which contains pyrrolopyrimidine compound as active ingredient” (KEIO UNIVERSITY, priority 2018, dated 2024).
